# System: 521955-158-R2-J5-PDC complex spheroid growth, % test/control
# Test: Anticancer human tumor 521955-158-R2-J5-PDC patient-derived pancreatic carcinoma cell line growth inhibition [Asc]
# Details: for IC50: curve of first compound; for viability, T/C: stronger effect = lower value
# Procedure, shortened: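 Concentration series start at each agent's clinical Cmax, or at 10 microM when none is established, and drop in half-log steps; agents are applied alone or together to complex spheroids built with HUVEC and hMSC.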
# [1] = second compound 0.01 µM, first compound 0.000316 µM
# [2] = second compound 0.01 µM, first compound 0.001 µM
# [3] = second compound 0.01 µM, first compound 0.00316 µM
# [4] = second compound 0.01 µM, first compound 0.01 µM
# [5] = second compound 0.01 µM, first compound 0.0316 µM
# [6] = second compound 0.01 µM, first compound 0.1 µM
# [7] = second compound 0.0316 µM, first compound 0.000316 µM
# [8] = second compound 0.0316 µM, first compound 0.001 µM
# [9] = second compound 0.0316 µM, first compound 0.00316 µM
# [10] = second compound 0.0316 µM, first compound 0.01 µM
# [11] = second compound 0.0316 µM, first compound 0.0316 µM
# [12] = second compound 0.0316 µM, first compound 0.1 µM
# [13] = second compound 0.1 µM, first compound 0.000316 µM
# [14] = second compound 0.1 µM, first compound 0.001 µM
# [15] = second compound 0.1 µM, first compound 0.00316 µM
# [16] = second compound 0.1 µM, first compound 0.01 µM
# [17] = second compound 0.1 µM, first compound 0.0316 µM
# [18] = second compound 0.1 µM, first compound 0.1 µM
# [19] = second compound 0.316 µM, first compound 0.000316 µM
# [20] = second compound 0.316 µM, first compound 0.001 µM
# [21] = second compound 0.316 µM, first compound 0.00316 µM
# [22] = second compound 0.316 µM, first compound 0.01 µM
# [23] = second compound 0.316 µM, first compound 0.0316 µM
# [24] = second compound 0.316 µM, first compound 0.1 µM
# [25] = second compound 1 µM, first compound 0.000316 µM
# [26] = second compound 1 µM, first compound 0.001 µM
# [27] = second compound 1 µM, first compound 0.00316 µM
# [28] = second compound 1 µM, first compound 0.01 µM
# [29] = second compound 1 µM, first compound 0.0316 µM
# [30] = second compound 1 µM, first compound 0.1 µM
# 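Note: spheroids exposed to agents for 7 days before readout.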
# 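Throughout, for viability, T/C: 100% = DMSO vehicle control viability.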
smiles,measurement,setting,value
Cn1ncnc1[C@H]1c2n[nH]c(=O)c3cc(F)cc(c23)N[C@@H]1c1ccc(F)cc1 + CNC(C)C(=O)NC1CN(S(=O)(=O)c2cccc(S(=O)(=O)N3CCC4CCC(C(=O)NC(c5ccccc5)c5ccccc5)N4C(=O)C(NC(=O)C(C)NC)C3)c2)CCC2CCC(C(=O)NC(c3ccccc3)c3ccccc3)N2C1=O,IC50,second compound 0.01 µM,> 100 nM
same,IC50,second compound 0.0316 µM,> 100 nM
same,IC50,second compound 0.1 µM,> 100 nM
same,IC50,second compound 0.316 µM,> 100 nM
same,IC50,second compound 1 µM,> 100 nM
same,"viability, T/C",[1],103%
same,"viability, T/C",[2],103%
same,"viability, T/C",[3],85.7%
same,"viability, T/C",[4],65.6%
same,"viability, T/C",[5],65.4%
same,"viability, T/C",[6],71.9%
same,"viability, T/C",[7],103%
same,"viability, T/C",[8],102%
same,"viability, T/C",[9],89.6%
same,"viability, T/C",[10],78%
same,"viability, T/C",[11],62.3%
same,"viability, T/C",[12],64.1%
same,"viability, T/C",[13],80.8%
same,"viability, T/C",[14],108%
same,"viability, T/C",[15],91%
same,"viability, T/C",[16],76.5%
same,"viability, T/C",[17],86.9%
same,"viability, T/C",[18],56.2%
same,"viability, T/C",[19],100%
same,"viability, T/C",[20],83%
same,"viability, T/C",[21],96.4%
same,"viability, T/C",[22],79.2%
same,"viability, T/C",[23],73.4%
same,"viability, T/C",[24],63.2%
same,"viability, T/C",[25],108%
same,"viability, T/C",[26],75.1%
same,"viability, T/C",[27],102%
same,"viability, T/C",[28],89.5%
same,"viability, T/C",[29],68.3%
same,"viability, T/C",[30],86.6%
O=C(c1ccc(F)c(F)c1Nc1ccc(I)cc1F)N1CC(O)([C@@H]2CCCCN2)C1 + CCN1C(C(=O)NC23CCC(C(=O)O)(CC2)CC3)C(c2cccc(Cl)c2F)C2(C(=O)Nc3cc(Cl)ccc32)C12CCCCC2,IC50,second compound 0.03 µM,77 nM
same,IC50,second compound 0.0949 µM,39.4 nM
same,IC50,second compound 0.3 µM,165 nM
same,IC50,second compound 0.949 µM,156 nM
same,IC50,second compound 3 µM,620 nM
same,"viability, T/C","second compound 0.03 µM, first compound 0.00316 µM",65.8%
same,"viability, T/C","second compound 0.03 µM, first compound 0.01 µM",56%
same,"viability, T/C","second compound 0.03 µM, first compound 0.0316 µM",62.5%
same,"viability, T/C","second compound 0.03 µM, first compound 0.1 µM",45.1%
same,"viability, T/C","second compound 0.03 µM, first compound 0.316 µM",37.2%
same,"viability, T/C","second compound 0.03 µM, first compound 1 µM",29.1%
same,"viability, T/C","second compound 0.0949 µM, first compound 0.00316 µM",80.7%
same,"viability, T/C","second compound 0.0949 µM, first compound 0.01 µM",80.1%
same,"viability, T/C","second compound 0.0949 µM, first compound 0.0316 µM",51.1%
same,"viability, T/C","second compound 0.0949 µM, first compound 0.1 µM",51.7%
same,"viability, T/C","second compound 0.0949 µM, first compound 0.316 µM",43.1%
same,"viability, T/C","second compound 0.0949 µM, first compound 1 µM",35.4%
same,"viability, T/C","second compound 0.3 µM, first compound 0.00316 µM",64.5%
same,"viability, T/C","second compound 0.3 µM, first compound 0.01 µM",83.3%
same,"viability, T/C","second compound 0.3 µM, first compound 0.0316 µM",85.2%
same,"viability, T/C","second compound 0.3 µM, first compound 0.1 µM",60%
same,"viability, T/C","second compound 0.3 µM, first compound 0.316 µM",40.9%
same,"viability, T/C","second compound 0.3 µM, first compound 1 µM",33.1%
same,"viability, T/C","second compound 0.949 µM, first compound 0.00316 µM",93.3%
same,"viability, T/C","second compound 0.949 µM, first compound 0.01 µM",91.3%
same,"viability, T/C","second compound 0.949 µM, first compound 0.0316 µM",82.4%
same,"viability, T/C","second compound 0.949 µM, first compound 0.1 µM",57.3%
same,"viability, T/C","second compound 0.949 µM, first compound 0.316 µM",37.8%
same,"viability, T/C","second compound 0.949 µM, first compound 1 µM",38.1%
same,"viability, T/C","second compound 3 µM, first compound 0.00316 µM",107%
same,"viability, T/C","second compound 3 µM, first compound 0.01 µM",102%
same,"viability, T/C","second compound 3 µM, first compound 0.0316 µM",80%
same,"viability, T/C","second compound 3 µM, first compound 0.1 µM",71.8%
same,"viability, T/C","second compound 3 µM, first compound 0.316 µM",61.8%
same,"viability, T/C","second compound 3 µM, first compound 1 µM",42.5%
NC1CCC(NC2CC2c2ccccc2)CC1 (stereo not given) + CNC(C)C(=O)NC1CN(S(=O)(=O)c2cccc(S(=O)(=O)N3CCC4CCC(C(=O)NC(c5ccccc5)c5ccccc5)N4C(=O)C(NC(=O)C(C)NC)C3)c2)CCC2CCC(C(=O)NC(c3ccccc3)c3ccccc3)N2C1=O,IC50,second compound 0.01 µM,> 100 nM
same,IC50,second compound 0.0316 µM,> 100 nM
same,IC50,second compound 0.1 µM,> 100 nM
same,IC50,second compound 0.316 µM,> 100 nM
same,IC50,second compound 1 µM,> 100 nM
same,"viability, T/C",[1],79.9%
same,"viability, T/C",[2],70.7%
same,"viability, T/C",[3],82.2%
same,"viability, T/C",[4],80.9%
same,"viability, T/C",[5],71.6%
same,"viability, T/C",[6],69.1%
same,"viability, T/C",[7],88.5%
same,"viability, T/C",[8],81.4%
same,"viability, T/C",[9],61%
same,"viability, T/C",[10],79%
same,"viability, T/C",[11],72%
same,"viability, T/C",[12],64.8%
same,"viability, T/C",[13],66.5%
same,"viability, T/C",[14],83.7%
same,"viability, T/C",[15],80.7%
same,"viability, T/C",[16],74.2%
same,"viability, T/C",[17],85.8%
same,"viability, T/C",[18],58.8%
same,"viability, T/C",[19],73.8%
same,"viability, T/C",[20],93.5%
same,"viability, T/C",[21],83%
same,"viability, T/C",[22],49%
same,"viability, T/C",[23],68.7%
same,"viability, T/C",[24],72%
same,"viability, T/C",[25],82%
same,"viability, T/C",[26],70.5%
same,"viability, T/C",[27],87.3%
same,"viability, T/C",[28],90%
same,"viability, T/C",[29],56.6%
same,"viability, T/C",[30],66.5%

# — PubChem BioAssay AID1963430 (Molecular Pharmacology Branch, DTP, NCI, 2024)
